This is an account of results in US6987004B1, “Genes integrating signal transduction pathways” (Massachusetts Institute of Technology, priority 1998, dated 2006).

What all share (assay type): cell-based
The target of test [1] is T1, cAMP-GEFI (Rattus norvegicus, UniProt Q9Z1C8).
T1 sequence (Q9Z1C8 43-926 limits assumed): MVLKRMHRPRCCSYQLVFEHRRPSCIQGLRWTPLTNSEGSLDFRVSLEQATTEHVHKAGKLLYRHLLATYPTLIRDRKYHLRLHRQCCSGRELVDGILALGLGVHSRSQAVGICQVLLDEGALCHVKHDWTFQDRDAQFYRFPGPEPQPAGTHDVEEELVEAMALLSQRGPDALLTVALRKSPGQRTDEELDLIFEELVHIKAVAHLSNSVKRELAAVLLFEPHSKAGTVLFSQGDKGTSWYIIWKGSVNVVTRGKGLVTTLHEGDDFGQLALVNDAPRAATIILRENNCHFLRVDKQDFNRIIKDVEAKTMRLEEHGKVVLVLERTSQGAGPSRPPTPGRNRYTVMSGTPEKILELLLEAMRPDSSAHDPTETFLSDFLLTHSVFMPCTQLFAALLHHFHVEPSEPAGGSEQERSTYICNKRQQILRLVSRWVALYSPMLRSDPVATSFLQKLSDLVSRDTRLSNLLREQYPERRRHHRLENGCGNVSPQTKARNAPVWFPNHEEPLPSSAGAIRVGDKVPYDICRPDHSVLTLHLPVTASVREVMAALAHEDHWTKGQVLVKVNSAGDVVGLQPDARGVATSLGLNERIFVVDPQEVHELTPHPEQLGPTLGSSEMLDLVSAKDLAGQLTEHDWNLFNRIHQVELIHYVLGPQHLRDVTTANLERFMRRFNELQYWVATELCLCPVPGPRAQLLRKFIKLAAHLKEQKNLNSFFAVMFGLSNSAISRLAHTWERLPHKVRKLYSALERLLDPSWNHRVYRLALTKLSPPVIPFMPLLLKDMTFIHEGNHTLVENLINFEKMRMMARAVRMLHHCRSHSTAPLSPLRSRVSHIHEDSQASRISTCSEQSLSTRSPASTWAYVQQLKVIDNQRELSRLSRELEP
Nature of the test: Ratio of GTP to GDP bound to Rap1A in 293T cells expressing cAMP-GEFI. The arrangement: expressed in transfected cells; host or cells: 293T cells. The method, then:
(§1) To determine the effect of CalDAG-GEFI on the Erk/MAP kinase cascade, Elk1 activation was measured in 293T cells transfected with CalDAG-GEFI or constitutively active H-Ras (RasV12), or both. 293T cells were transfected by SuperFect (Qiagen) as described in Gotoh, supra, with expression vectors for GST-tagged Ras family proteins and with those for various GEFs. Cells were labeled 24 hours after transfection with ^32Pi for 2 hr. In some experiments, cells were stimulated with either 10 μM A23187 or 1 μM phorbol-12-myristate-13-acetate (TPA) for 3 min. GST-tagged Ras family proteins were collected from cell lysates with glutathione Sepharose. Guanine nucleotides bound to Ras family proteins were separated by thin layer chromatography (TLC). Activation of Elk1 was examined by the PathDetect Elk1 transreporting system (Stratagene). 293T cells were transfected with pFR-Luc and pFA-Elk1 with various expression vectors, and light output was detected and analyzed by the use of LAS1000 film.
(§2) Forskolin/IBMX treatment given alone had no effect.
Thus, cAMP-GEFI has a direct effect on Rap1A rather than secondary effects mediated by other Ras-superfamily GEFs.

The target of test [2] is T2, cAMP-GEFII (Homo sapiens, UniProt Q8WZA2).
T2 construct: expressed in transfected cells; host or cells: 293T cells
Nature of the test: Ratio of GTP to GDP bound to Rap1A in 293T cells expressing cAMP-GEFII. Here is the method:
as §1, §2

The test system of test [3] is Rap1A. Nature of the test: GTP-bound Rap1A in 293T cells in the absence of cAMP-GEFs. The note with it: treatment alone.
Excerpt: as §2
cAMP-dependent activation of Rap1 has previously been ascribed to the phosphorylation of Rap1A by PKA, which raises its affinity to smgGDS, a GEF with broad substrate specificity. […] The activation of Rap1A induced by cAMP-GEFI and II is independent of the PKA pathway.

T2 sequence (Q8WZA2 whole entry): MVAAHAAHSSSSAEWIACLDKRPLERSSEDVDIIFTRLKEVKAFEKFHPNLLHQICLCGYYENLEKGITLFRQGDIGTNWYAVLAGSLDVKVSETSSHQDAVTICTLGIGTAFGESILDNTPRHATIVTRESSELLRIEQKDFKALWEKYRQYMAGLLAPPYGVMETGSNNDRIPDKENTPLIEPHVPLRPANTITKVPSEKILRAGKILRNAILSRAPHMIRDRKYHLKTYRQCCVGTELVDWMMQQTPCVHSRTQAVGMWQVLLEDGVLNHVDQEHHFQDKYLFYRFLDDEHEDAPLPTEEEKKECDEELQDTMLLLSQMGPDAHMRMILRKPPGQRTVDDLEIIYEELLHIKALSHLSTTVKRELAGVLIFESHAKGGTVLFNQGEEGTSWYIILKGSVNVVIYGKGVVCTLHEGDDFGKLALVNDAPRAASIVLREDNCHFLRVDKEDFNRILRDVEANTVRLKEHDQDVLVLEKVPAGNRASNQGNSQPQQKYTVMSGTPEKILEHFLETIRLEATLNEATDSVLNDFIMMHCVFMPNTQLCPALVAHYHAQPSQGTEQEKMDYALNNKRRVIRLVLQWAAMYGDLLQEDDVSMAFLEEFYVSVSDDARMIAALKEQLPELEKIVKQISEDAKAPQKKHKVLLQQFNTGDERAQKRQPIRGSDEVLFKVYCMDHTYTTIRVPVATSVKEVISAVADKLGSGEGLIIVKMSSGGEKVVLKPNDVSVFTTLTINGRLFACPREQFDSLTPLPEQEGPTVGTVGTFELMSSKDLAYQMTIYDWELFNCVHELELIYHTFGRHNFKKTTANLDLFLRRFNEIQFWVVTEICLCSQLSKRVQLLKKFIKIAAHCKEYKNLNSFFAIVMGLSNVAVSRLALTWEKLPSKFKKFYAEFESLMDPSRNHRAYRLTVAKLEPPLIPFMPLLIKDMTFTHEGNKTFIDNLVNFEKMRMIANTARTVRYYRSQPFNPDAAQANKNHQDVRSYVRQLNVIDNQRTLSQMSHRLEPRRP

`O=S(=O)(NCCNC/C=C/c1ccc(Br)cc1)c1cccc2cnccc12` [H-89]: the “Rap1A activation by cAMP-GEFI in the presence of the PKA inhibitor” value in test [1] (293T cells) is given as “could still activate Rap1A”. Further, in test [2], the “Rap1A activation by cAMP-GEFII in the presence of the PKA inhibitor” value is on record as “could still activate Rap1A”.

As for `Nc1ncnc2c1ncn2[C@@H]1O[C@@H]2COP(O)(=S)O[C@H]2[C@H]1O` (stereo partly shown) [Sp-cAMPS], the “Increase of GTP-bound Rap1A without cAMP-GEF” value in test [3] is recorded as “not detected”. Further, the “Activation of Rap1A” value in test [1] (cAMP-GEFI transfectants) is recorded as “activated Rap1A at levels similar to those induced by forskolin/IBMX”.
